Laboratory results: patent publication US10676446B2, “Bicyclic quinazolinone derivatives” (Hoffmann-La Roche Inc., priority 2015, dated 2020)

Target: human ATX (autotaxin, ENPP2), His-tagged (Homo sapiens (Human), UniProt Q13822)
Assay: Human ATX enzyme inhibition assay (fluorescence quenching, MR121 substrate)
Type: biochemical
Details: 30 nM ATX, 1 μM MR121 substrate, 30° C., pH 8.0
Experimental: Human ATX Enzyme Inhibition Assay
ATX inhibition was measured by a fluorescence quenching assay using a specifically labeled substrate analogue (MR121 substrate). To obtain this MR121 substrate, BOC and TBS protected 6-amino-hexanoic acid (R)-3-({2-[3-(2-{2-[2-(2-amino-ethoxy)-ethoxy]-ethoxy}-ethoxy)-propionylamino]-ethoxy}-hydroxy-phosphoryloxy)-2-hydroxy-propyl ester (Ferguson et al., Org. Lett. 2006, 8, 2023) was labeled with MR121 fluorophore [CAS RN 185308-24-1], 1-(3-carboxypropyl)-11-ethyl-1,2,3,4,8,9,10,11-octahydro-dipyrido[3,2-b:2′,3′-i]phenoxazin-13-ium) on the free amine of the ethanolamine side and then, after deprotection, subsequently with tryptophan on the side of the aminohexanoic acid.
Assay working solutions were made as follows:
Assay buffer (50 mM Tris-HCl, 140 mM NaCl, 5 mM KCl, 1 mM CaCl2, 1 mM MgCl2, 0.01% Triton-X-100, pH 8.0;
ATX solution: ATX (human His-tagged) stock solution (1.08 mg/mL in 20 mM bicine, pH 8.5, 0.15 M NaCl, 10% glycerol, 0.3% CHAPS, 0.02% NaN3), diluted to 1.4-2.5× final concentration in assay buffer;
MR121 substrate solution: MR121 substrate stock solution (800 μM MR121 substrate in DMSO), diluted to 2-5× final concentration in assay buffer.
Test compounds (10 mM stock in DMSO, 8 μL) were obtained in 384 well sample plates (Corning Costar #3655) and diluted with 8 μL DMSO. Row-wise serial dilutions were made by transferring 8 μL cpd solution to the next row up to row O. The compound and control solutions were mixed five times and 2 μL were transferred to 384 well assay plates (Corning Costar #3702). Then, 15 μL of 41.7 nM ATX solution was added (30 nM final concentration), mixed five times and then incubated for 15 minutes at 30° C. 10 μL of MR121 substrate solution was added (1 μM final concentration), mixed 30 times and then incubated for 15 minutes at 30° C.

Compound	IC50 [nM]
O=C(Cn1cnc2ccc(N3CCN(CC4CCOCC4)CC3)cc2c1=O)NCc1ccc(Cl)c(Cl)c1 [Example 98]	44
CC(=O)N1CCN(c2ccc3ncn(CC(=O)N(Cc4ccc(Cl)c(Cl)c4)C(C)C)c(=O)c3c2)CC1 [Example 117, 2-[6-(4-Acetylpiperazin-1-yl)-4-oxoquinazolin-3-yl]-N-[(3,4-dichlorophenyl)methyl]-N-propan-2-ylacetamide]	16
CC(=O)N1CCN(c2ccc3ncn(CC(=O)N(C)Cc4ccc(Cl)cc4)c(=O)c3c2)CC1 [Example 43]	112
CC(=O)N1CCC(c2ccc3ncn(CC(=O)N(C)Cc4ccc(C#N)c(F)c4)c(=O)c3c2)CC1 [Example 127]	9
CN(Cc1ccc(Cl)c(Cl)c1)C(=O)Cn1cnc2ccc(C3CCN(C(=O)C4COCCO4)CC3)cc2c1=O (centres unmarked) [Example 178]	34
COCCNC(=O)N1CCN(c2ccc3ncn(CC(=O)NCc4ccc(Cl)c(Cl)c4)c(=O)c3c2)CC1 [Example 85]	61
CN(Cc1ccc(Cl)c(Cl)c1)C(=O)Cn1cnc2ccc(N3CCN(CC4COC4)CC3)cc2c1=O [Example 106]	132
CC(=O)N1CCN(c2ccc3ncn(CC(=O)NCc4ccc(C#N)cc4OCC(F)(F)F)c(=O)c3c2)CC1 [Example 33]	245
CC(=O)N1CCC(c2ccc3ncn(CC(=O)NCc4cc(Cl)cc(C(F)(F)F)c4)c(=O)c3c2)CC1 [Example 161, 2-[6-(1-Acetylpiperidin-4-yl)-4-oxoquinazolin-3-yl]-N-[[3-chloro-5-(trifluoromethyl)phenyl]methyl]acetamide]	28
COCCC(=O)N1CCC(c2cc(F)c3ncn(CC(=O)N(C)Cc4ccc(C#N)c(Cl)c4)c(=O)c3c2)CC1 [Example 188, N-[(3-Chloro-4-cyanophenyl)methyl]-2-[8-fluoro-6-[1-(3-methoxypropanoyl)piperidin-4-yl]-4-oxoquinazolin-3-yl]-N-methylacetamide]	1
CC(=O)N1CCC(c2cc(F)c3ncn(CC(=O)N(C)Cc4ccc(C#N)c(Cl)c4)c(=O)c3c2)CC1 [Example 187, 2-[6-(1-Acetylpiperidin-4-yl)-8-fluoro-4-oxoquinazolin-3-yl]-N-[(3-chloro-4-cyanophenyl)methyl]-N-methylacetamide]	1
O=C(Cn1cnc2ccc(N3CCN(C(=O)C(F)(F)F)CC3)cc2c1=O)NCc1ccc(Cl)c(Cl)c1 [Example 62]	11
O=C(Cn1cnc2ccc(N3CCN(C(=O)Nc4cccnc4)CC3)cc2c1=O)NCc1ccc(Cl)c(Cl)c1 [Example 87]	76
COCCC(=O)N1CCC(c2ccc3ncn(CC(=O)N(C)Cc4ccc(C#N)c(Cl)c4)c(=O)c3c2)CC1 [Example 134]	1
CC(=O)N1CCN(c2ccc3ncn(CC(=O)NCc4ccc(F)cc4)c(=O)c3c2)CC1 [Example 14]	1470
CN(Cc1ccc(C#N)c(Cl)c1)C(=O)Cn1cnc2ccc(C3CCN(C(=O)C4CC(F)(F)C4)CC3)cc2c1=O [Example 140]	47
CC(=O)N1CCN(c2ccc3[nH]c(=O)n(CC(=O)NCc4ccc(Cl)c(Cl)c4)c(=O)c3c2)CC1 [Example 152, 2-[6-(4-Acetylpiperazin-1-yl)-2,4-dioxo-1H-quinazolin-3-yl]-N-[(3,4-dichlorophenyl)methyl]acetamide]	180
CN(Cc1ccc(Cl)c(Cl)c1)C(=O)Cn1cnc2ccc(N3CCN(C(=O)C4(C)COC4)CC3)cc2c1=O [Example 80]	12
COC1CC(C(=O)N2CCN(c3ccc4ncn(CC(=O)N(C)Cc5ccc(Cl)c(Cl)c5)c(=O)c4c3)CC2)C1 (centres unmarked) [Example 78]	9
CC(=O)N1CCN(c2ccc3ncn(C(C)C(=O)N(C)Cc4ccc(Cl)c(Cl)c4)c(=O)c3c2)CC1 (centres unmarked) [Example 149, 2-[6-(4-Acetylpiperazin-1-yl)-4-oxoquinazolin-3-yl]-N-[(3,4-dichlorophenyl)methyl]-N-methylpropanamide]	39
CC(=O)N1CCN(c2ccc3ncn(C(C)C(=O)NCc4ccc(Cl)c(Cl)c4)c(=O)c3c2)CC1 (centres unmarked) [Example 148, 2-[6-(4-Acetylpiperazin-1-yl)-4-oxoquinazolin-3-yl]-N-[(3,4-dichlorophenyl)methyl]propanamide]	15
CO[C@H](C)C(=O)N1CCC(c2ccc3ncn(CC(=O)N(C)Cc4ccc(C#N)c(Cl)c4)c(=O)c3c2)CC1 [Example 158]	2
CN(Cc1ccc(Cl)c(Cl)c1)C(=O)Cn1cnc2ccc(C3CCN(C(=O)c4cnco4)CC3)cc2c1=O [Example 183]	28
CN(Cc1ccc(Cl)c(Cl)c1)C(=O)Cn1cnc2ccc(N3CCN(C(=O)C4CC(Cl)C4)CC3)cc2c1=O (centres unmarked) [Example 77]	3

Compound	IC50 [nM]
CC(=O)N1CCN(c2ccc3ncn(CC(=O)NCc4c(F)cc(C#N)cc4F)c(=O)c3c2)CC1 [Example 31]	331
CC(=O)N1CCN(c2ccc3ncn(CC(=O)NC(C)c4ccc(Cl)cc4)c(=O)c3c2)CC1 (centres unmarked) [Example 13]	478
CC(=O)N1CCN(c2ccc3ncn(CC(=O)NCc4ccnc(Cl)c4)c(=O)c3c2)CC1 [Example 36]	346
CC(=O)N1CCN(c2ccc3ncn(CC(=O)NCc4ccc(C#N)nc4)c(=O)c3c2)CC1 [Example 18]	14
CCC(=O)N1CCN(c2ccc3ncn(CC(=O)N(C)Cc4ccc(Cl)c(Cl)c4)c(=O)c3c2)CC1 [Example 68]	4
CC(=O)N1CCN(c2ccc3ncn(CC(=O)NCc4cc(-c5ccc(Cl)cc5)no4)c(=O)c3c2)CC1 [Example 50]	456
CC(=O)N1CCN(c2ccc3ncn(CC(=O)NCc4ccc5c(c4)OCO5)c(=O)c3c2)CC1 [Example 15]	415
CN(Cc1ccc(C#N)c(Cl)c1)C(=O)Cn1cnc2ccc(N3CCCN(CC4CCOC4)CC3)cc2c1=O (centres unmarked) [Example 129, N-[(3-Chloro-4-cyanophenyl)methyl]-N-methyl-2-[4-oxo-6-[4-(oxolan-3-ylmethyl)-1,4-diazepan-1-yl]quinazolin-3-yl]acetamide]	26
O=C(Cn1cnc2ccc(N3CCN(CCO)CC3)cc2c1=O)NCc1ccc(Cl)c(Cl)c1 [Example 94, N-[(3,4-Dichlorophenyl)methyl]-2-[6-[4-(2-hydroxyethyl)piperazin-1-yl]-4-oxoquinazolin-3-yl]acetamide]	67
CC(=O)N1CCN(c2ccc3ncn(CC(=O)NCc4ccc(Cl)nc4)c(=O)c3c2)CC1 [Example 11]	119
O=C(Cn1cnc2ccc(N3CCN(C(=O)NC4CC4)CC3)cc2c1=O)NCc1ccc(Cl)c(Cl)c1 [Example 83]	30
CC(=O)N1CCC(c2cc3c(=O)n(CC(=O)N(C)Cc4ccc(C#N)c(Cl)c4)cnc3cn2)CC1 [Example 189, 2-[6-(1-Acetylpiperidin-4-yl)-4-oxopyrido[3,4-d]pyrimidin-3-yl]-N-[(3-chloro-4-cyanophenyl)methyl]-N-methylacetamide]	1
CC(=O)N1CCN(c2ccc3ncn(CC(=O)N(C)Cc4cc(F)c(C#N)c(F)c4)c(=O)c3c2)CC1 [Example 58, 2-[6-(4-Acetylpiperazin-1-yl)-4-oxoquinazolin-3-yl]-N-[(4-cyano-3,5-difluorophenyl)methyl]-N-methylacetamide]	15
CC(C)[C@@H](O)C(=O)N1CCC(c2ccc3ncn(CC(=O)N(C)Cc4ccc(Cl)c(Cl)c4)c(=O)c3c2)CC1 [Example 169]	35
CC(=O)N1CCN(c2ccc3ncn(CC(=O)NCc4ccc(Cl)cc4)c(=O)c3c2)CC1 [Example 10, 2-[6-(4-Acetylpiperazin-1-yl)-4-oxoquinazolin-3-yl]-N-[(4-chlorophenyl)methyl]acetamide]	96
O=C(Cn1cnc2ccc(N3CCN(Cc4ccoc4C(=O)O)CC3)cc2c1=O)NCc1ccc(Cl)c(Cl)c1 [Example 102]	195
CC(=O)N1CCN(c2ccc3ncn(CC(=O)NC(CC(=O)Nc4ccccc4)c4ccc(C(F)(F)F)cc4)c(=O)c3c2)CC1 (centres unmarked) [Example 7]	84
CN(Cc1ccc(C#N)c(Cl)c1)C(=O)Cn1cnc2ccc(C3CCN(C(=O)CO)CC3)cc2c1=O [Example 131, N-[(3-Chloro-4-cyanophenyl)methyl]-2-[6-[1-(2-hydroxyacetyl)piperidin-4-yl]-4-oxoquinazolin-3-yl]-N-methylacetamide]	1
CC(=O)N1CCN(c2ccc3ncn(CC(=O)NCc4cccc(C#N)c4C)c(=O)c3c2)CC1 [Example 35]	71
O=C(Cn1cnc2ccc(N3CCN(C(=O)c4ccno4)CC3)cc2c1=O)NCc1ccc(Cl)c(Cl)c1 [Example 67]	15
CC(=O)N1CCN(c2ccc3ncn(CC(=O)NCc4noc(-c5ccc(Cl)cc5)n4)c(=O)c3c2)CC1 [Example 51]	51
CN(C)C(=O)CN1CCN(c2ccc3ncn(CC(=O)N(C)Cc4ccc(Cl)c(Cl)c4)c(=O)c3c2)CC1 [Example 108]	55
CC(=O)N1CCC(c2ccc3ncn(CC(=O)NCc4ccc(Cl)c(C(F)(F)F)c4)c(=O)c3c2)CC1 [Example 163]	1
